Reference: patent publication US10501458B2, “Substituted bicyclic fused ring compounds as indoleamine-2,3-dioxygenase inhibitors” (Merck Sharp & Dohme Corp., priority 2015, dated 2019)

Legend:
TDO [1] = target: T1, TDO (Homo sapiens (Human), UniProt P48775); assay: A172 kynurenine cell-based assay; settings: A172 human glioblastoma cells, 500 μM L-tryptophan, 48 hours; for IC50: read-out: A172 Kynurenine cell based assay, pIC50 (converted)
Experimental: (§1) Exemplary compounds of the invention were prepared, and tested to determine their effect as TDO and/or IDO inhibitors. Two different assays were employed: 1. a cell-based assay for detecting the effect of test compounds on kynurenine production in two different cancer cell types. This assay utilised cancer cells which expressed either TDO or IDO and as such was used as a means of testing compound activity at these two enzymes in a cell-based context. 2. a TDO and IDO biochemical coupled assay which utilised recombinantly produced and purified TDO and IDO enzymes in combination with the enzyme formamidase. This coupled enzyme system allowed conversion of N-formylkynurenine produced by TDO or IDO activity to kynurenine which was then quantified by fluorescence following addition of Erhlich's Reagent The protocols for these are set out below.
(§2) Cell Based Assay for Detection of Kynurenine Produced by TDO and/or IDO
(§3) A172 (human glioblastoma) and SKOV3 (human ovarian adenocarcinoma) cells were seeded in a 96 well plate at 30,000 or 40,000 cells per well respectively in phenol red-free RPMI supplemented with 10% FCS, 2 mM L-glutamine and 500 μM L-tryptophan. IDO expression was induced in the SKOV3 cells by the addition of 500 ng/ml IFN-γ. Cells were incubated at 37° C. with or without the addition of test compound. After 48 hours, the cells were removed by centrifugation and Erhlich's reagent was added to the supernatant. The Erhlich's reagent was incubated for 5 minutes before the absorbance was read at 490 nm.

IDO [2] = target: T2, IDO (Homo sapiens (Human), UniProt P14902); assay: SKOV3 kynurenine cell-based assay (IDO induced by IFN-γ); settings: SKOV3 human ovarian adenocarcinoma cells, 500 ng/ml IFN-γ, 500 μM L-tryptophan, 48 hours; for IC50: read-out: SKOV3 Kynurenine cell based assay, pIC50 (converted)
T2 sequence (P14902 whole entry): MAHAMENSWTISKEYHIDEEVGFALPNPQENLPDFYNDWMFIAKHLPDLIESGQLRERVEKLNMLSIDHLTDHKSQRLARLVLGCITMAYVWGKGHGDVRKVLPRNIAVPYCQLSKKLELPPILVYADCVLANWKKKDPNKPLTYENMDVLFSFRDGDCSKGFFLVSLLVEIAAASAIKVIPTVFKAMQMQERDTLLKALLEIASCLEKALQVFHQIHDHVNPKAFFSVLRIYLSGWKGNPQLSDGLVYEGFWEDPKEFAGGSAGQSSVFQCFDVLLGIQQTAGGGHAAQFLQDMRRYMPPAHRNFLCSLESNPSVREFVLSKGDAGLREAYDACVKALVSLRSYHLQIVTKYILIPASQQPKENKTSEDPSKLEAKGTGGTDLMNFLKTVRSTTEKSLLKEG
Experimental: as §1, §2, §3

TDO [3] = target: T1, TDO; assay: hTDO biochemical coupled assay; settings: 330 μM L-tryptophan, 17 minutes at room temperature
Experimental: as §1
(§4) TDO and IDO Biochemical Coupled Assay
(§5) Recombinant human IDO or TDO was incubated in 50 mM KPO4 (pH 7.0), 0.5 mM EGTA, 0.5 mM EDTA, 0.05% Triton™ X100, 20 mM ascorbate, 10 μM methylene blue, 500 U/ml catalase, 50 μg/ml KynB (kynurenine formamidase). TDO assays were carried out in the presence of 330 μM L-tryptophan, while IDO assays had the addition of 45 μM L-tryptophan. After incubation for 17 minutes at room temperature the reactions were stopped by the addition of Erhlich's reagent and incubated at room temperature for 5 minutes before the fluorescence was read (Ex 475, Em530).

IDO [4] = target: T2, IDO; assay: hIDO biochemical coupled assay; settings: 45 μM L-tryptophan, 17 minutes at room temperature; for IC50: read-out: hIDO biochemical assay, pIC50 (converted)
Experimental: as §1, §4, §5

T1 sequence (P48775 whole entry): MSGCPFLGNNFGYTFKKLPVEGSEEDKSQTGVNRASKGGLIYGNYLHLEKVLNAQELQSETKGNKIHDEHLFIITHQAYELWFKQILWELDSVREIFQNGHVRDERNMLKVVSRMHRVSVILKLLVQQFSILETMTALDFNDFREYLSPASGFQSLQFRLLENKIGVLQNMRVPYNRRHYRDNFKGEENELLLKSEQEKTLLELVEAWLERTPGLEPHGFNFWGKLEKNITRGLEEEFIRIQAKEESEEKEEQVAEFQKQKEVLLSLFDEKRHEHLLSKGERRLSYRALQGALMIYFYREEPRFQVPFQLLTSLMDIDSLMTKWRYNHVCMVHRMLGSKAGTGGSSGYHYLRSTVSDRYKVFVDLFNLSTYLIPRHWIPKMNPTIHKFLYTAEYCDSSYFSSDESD

## O=C(Nc1cccn2cncc12)c1ccccc1 [Compound 1001]
TDO [1]
  A172 Kynurenine cell based assay, pIC50: +/− (+/− = pIC50 <4.00)
IDO [2]
  SKOV3 Kynurenine cell based assay, pIC50: + (+ = pIC50 4.00-4.49)
TDO [3]
  hTDO biochemical assay, pIC50: +/− (+/− = pIC50 <4.00)
IDO [4]
  hIDO biochemical assay, pIC50: +/− (+/− = pIC50 <4.00)

## CC(=O)N1CCN(c2cc(C(F)(F)F)cn3cncc23)CC1 [Compound 1002]
TDO [1]
  A172 Kynurenine cell based assay, pIC50: ++ (++ = pIC50 4.50-5.49)
IDO [2]
  SKOV3 Kynurenine cell based assay, pIC50: + (+ = pIC50 4.00-4.49)
IDO [4]
  hIDO biochemical assay, pIC50: +/− (+/− = pIC50 <4.00)

## CS(=O)(=O)N1CCN(c2cc(C(F)(F)F)cn3cncc23)CC1 [Compound 1003]
TDO [1]
  A172 Kynurenine cell based assay, pIC50: ++ (++ = pIC50 4.50-5.49)
IDO [2]
  SKOV3 Kynurenine cell based assay, pIC50: + (+ = pIC50 4.00-4.49)
IDO [4]
  hIDO biochemical assay, pIC50: +/− (+/− = pIC50 <4.00)

## CC(=O)N1CCC(c2cc(C(F)(F)F)cn3cncc23)CC1 [Compound 1004]
TDO [1]
  A172 Kynurenine cell based assay, pIC50: + (+ = pIC50 4.00-4.49)
IDO [2]
  SKOV3 Kynurenine cell based assay, pIC50: +/− (+/− = pIC50 <4.00)
IDO [4]
  hIDO biochemical assay, pIC50: + (+ = pIC50 4.00-4.49)

## CS(=O)(=O)N1CCC(c2cc(C(F)(F)F)cn3cncc23)CC1 [Compound 1005, 8-(1-(methylsulfonyl)piperidin-4-yl)-6-(trifluoromethyl)imidazo[1,5-a]pyridine]
TDO [1]
  IC50: 3.24 to 31.6 µM
IDO [2]
  IC50: 32.4 to 100 µM
IDO [4]
  IC50: 3.24 to 31.6 µM

## CS(=O)(=O)N1CCN(c2cc(Cl)cn3cncc23)CC1 [Compound 1006]
TDO [1]
  A172 Kynurenine cell based assay, pIC50: ++ (++ = pIC50 4.50-5.49)
IDO [2]
  SKOV3 Kynurenine cell based assay, pIC50: + (+ = pIC50 4.00-4.49)
IDO [4]
  hIDO biochemical assay, pIC50: ++ (++ = pIC50 4.50-5.49)

## CS(=O)(=O)c1ccc(-c2cc(C(F)(F)F)cn3cncc23)cc1 [Compound 1007]
TDO [1]
  A172 Kynurenine cell based assay, pIC50: +++ (+++ = pIC50 ≥5.50)
IDO [2]
  SKOV3 Kynurenine cell based assay, pIC50: + (+ = pIC50 4.00-4.49)
IDO [4]
  hIDO biochemical assay, pIC50: + (+ = pIC50 4.00-4.49)

## OCCc1cc(C(F)(F)F)cn2cncc12 [Compound 1008]
TDO [1]
  A172 Kynurenine cell based assay, pIC50: +/− (+/− = pIC50 <4.00)
IDO [2]
  SKOV3 Kynurenine cell based assay, pIC50: + (+ = pIC50 4.00-4.49)
TDO [3]
  hTDO biochemical assay, pIC50: +/− (+/− = pIC50 <4.00)
IDO [4]
  hIDO biochemical assay, pIC50: +/− (+/− = pIC50 <4.00)

## CS(=O)(=O)N1CCC(Nc2cc(C(F)(F)F)cn3cncc23)CC1 [Compound 1009]
TDO [1]
  A172 Kynurenine cell based assay, pIC50: +/− (+/− = pIC50 <4.00)
IDO [2]
  SKOV3 Kynurenine cell based assay, pIC50: ++ (++ = pIC50 4.50-5.49)
IDO [4]
  hIDO biochemical assay, pIC50: +/− (+/− = pIC50 <4.00)

## CS(=O)(=O)c1ccc(-c2cc(Cl)cn3cncc23)cc1 [Compound 1010, 6-chloro-8-(4-(methylsulfonyl)phenyl)imidazo[1,5-a]pyridine]
TDO [1]
  IC50: ≤ 3.16 µM
IDO [2]
  IC50: 32.4 to 100 µM
IDO [4]
  IC50: 3.24 to 31.6 µM

## CS(=O)(=O)c1ccc(-c2cc(Cl)cc3cncn23)cc1 [Compound 1012]
TDO [1]
  A172 Kynurenine cell based assay, pIC50: ++ (++ = pIC50 4.50-5.49)
IDO [2]
  SKOV3 Kynurenine cell based assay, pIC50: + (+ = pIC50 4.00-4.49)
IDO [4]
  hIDO biochemical assay, pIC50: ++ (++ = pIC50 4.50-5.49)

## CS(=O)(=O)N1CCN(c2cc(Cl)cc3cncn23)CC1 [Compound 1013]
TDO [1]
  A172 Kynurenine cell based assay, pIC50: + (+ = pIC50 4.00-4.49)
IDO [2]
  SKOV3 Kynurenine cell based assay, pIC50: + (+ = pIC50 4.00-4.49)
TDO [3]
  hTDO biochemical assay, pIC50: ++ (++ = pIC50 4.50-5.49)
IDO [4]
  hIDO biochemical assay, pIC50: ++ (++ = pIC50 4.50-5.49)

## CC1(C)CN(c2cc(C(F)(F)F)cn3cncc23)CCN1S(C)(=O)=O [Compound 1014, 8-(3,3-dimethyl-4-(methylsulfonyl)piperazin-1-yl)-6-(trifluoromethyl)imidazo[1,5-a]pyridine]
TDO [1]
  IC50: ≤ 3.16 µM
IDO [2]
  IC50: ≤ 3.16 µM

## CS(=O)(=O)c1ccc(-c2cc(C(F)(F)F)cc3cncn23)cc1 [Compound 1015, 5-(4-(methylsulfonyl)phenyl)-7-(trifluoromethyl)imidazo[1,5-a]pyridine]
TDO [1]
  IC50: 3.24 to 31.6 µM
IDO [2]
  IC50: 32.4 to 100 µM
TDO [3]; read-out: hTDO biochemical assay, pIC50 (converted)
  IC50: 32.4 to 100 µM
IDO [4]
  IC50: 3.24 to 31.6 µM

## CC1(C)CN(c2cc(Cl)cn3cncc23)CCN1S(C)(=O)=O [Compound 1016]
TDO [1]
  A172 Kynurenine cell based assay, pIC50: +++ (+++ = pIC50 ≥5.50)
IDO [2]
  SKOV3 Kynurenine cell based assay, pIC50: ++ (++ = pIC50 4.50-5.49)

## CS(=O)(=O)N1CCC(c2cc(C(F)(F)F)cc3cncn23)CC1 [Compound 1017]
TDO [1]
  A172 Kynurenine cell based assay, pIC50: ++ (++ = pIC50 4.50-5.49)
IDO [2]
  SKOV3 Kynurenine cell based assay, pIC50: +/− (+/− = pIC50 <4.00)
TDO [3]
  hTDO biochemical assay, pIC50: + (+ = pIC50 4.00-4.49)
IDO [4]
  hIDO biochemical assay, pIC50: + (+ = pIC50 4.00-4.49)

## CC1(C)CN(c2cc(Br)cn3cncc23)CCN1S(C)(=O)=O [Compound 1022]
TDO [1]
  A172 Kynurenine cell based assay, pIC50: +++ (+++ = pIC50 ≥5.50)
IDO [2]
  SKOV3 Kynurenine cell based assay, pIC50: +++ (+++ = pIC50 ≥5.50)

## CS(=O)(=O)Nc1ccc(C2CCN(c3cc(C(F)(F)F)cc4cncn34)CC2)cc1 [Compound 1023]
TDO [1]
  A172 Kynurenine cell based assay, pIC50: ++ (++ = pIC50 4.50-5.49)
IDO [2]
  SKOV3 Kynurenine cell based assay, pIC50: +++ (+++ = pIC50 ≥5.50)

## CC(=O)Nc1ccc(C2CCN(c3cc(C(F)(F)F)cc4cncn34)CC2)cc1 [Compound 1024]
TDO [1]
  A172 Kynurenine cell based assay, pIC50: ++ (++ = pIC50 4.50-5.49)
IDO [2]
  SKOV3 Kynurenine cell based assay, pIC50: +++ (+++ = pIC50 ≥5.50)

## CNC(=O)c1ccc(C2CCN(c3cc(C(F)(F)F)cc4cncn34)CC2)cc1 [Compound 1025]
TDO [1]
  A172 Kynurenine cell based assay, pIC50: ++ (++ = pIC50 4.50-5.49)
IDO [2]
  SKOV3 Kynurenine cell based assay, pIC50: +++ (+++ = pIC50 ≥5.50)

## CC1(C)CN(c2cc(C(F)(F)F)cc3cncn23)CCN1S(C)(=O)=O [Compound 1026]
TDO [1]
  A172 Kynurenine cell based assay, pIC50: +++ (+++ = pIC50 ≥5.50)
IDO [2]
  SKOV3 Kynurenine cell based assay, pIC50: +++ (+++ = pIC50 ≥5.50)

## CS(=O)(=O)NC1CCN(c2cc(C(F)(F)F)cc3cncn23)CC1 [Compound 1027]
TDO [1]
  A172 Kynurenine cell based assay, pIC50: ++ (++ = pIC50 4.50-5.49)
IDO [2]
  SKOV3 Kynurenine cell based assay, pIC50: ++ (++ = pIC50 4.50-5.49)
IDO [4]
  hIDO biochemical assay, pIC50: ++ (++ = pIC50 4.50-5.49)

## OC1(c2cc(C(F)(F)F)cn3cncc23)CCCCC1 [Compound 1028]
TDO [1]
  A172 Kynurenine cell based assay, pIC50: +++ (+++ = pIC50 ≥5.50)
IDO [2]
  SKOV3 Kynurenine cell based assay, pIC50: ++ (++ = pIC50 4.50-5.49)
IDO [4]
  hIDO biochemical assay, pIC50: ++ (++ = pIC50 4.50-5.49)

## CC(=O)N1CCN(c2cc(C(F)(F)F)cn3cncc23)CC1(C)C [Compound 1029]
TDO [1]
  A172 Kynurenine cell based assay, pIC50: +++ (+++ = pIC50 ≥5.50)
IDO [2]
  SKOV3 Kynurenine cell based assay, pIC50: ++ (++ = pIC50 4.50-5.49)

## CS(=O)(=O)N1CCC(Nc2cc(Cl)cc3cncn23)CC1 [Compound 1030]
TDO [1]
  A172 Kynurenine cell based assay, pIC50: ++ (++ = pIC50 4.50-5.49)
IDO [2]
  SKOV3 Kynurenine cell based assay, pIC50: ++ (++ = pIC50 4.50-5.49)

## CC(=O)N1CCN(c2cc(Cl)cc3cncn23)CC1(C)C [Compound 1031]
TDO [1]
  A172 Kynurenine cell based assay, pIC50: +++ (+++ = pIC50 ≥5.50)
IDO [2]
  SKOV3 Kynurenine cell based assay, pIC50: +++ (+++ = pIC50 ≥5.50)

## CC1(C)CN(c2cc(Cl)cc3cncn23)CCN1S(C)(=O)=O [Compound 1032]
TDO [1]
  A172 Kynurenine cell based assay, pIC50: ++ (++ = pIC50 4.50-5.49)
IDO [2]
  SKOV3 Kynurenine cell based assay, pIC50: +++ (+++ = pIC50 ≥5.50)

## CC(=O)N1CCN(c2cc(Cl)cn3cncc23)CC1(C)C [Compound 1033]
TDO [1]
  A172 Kynurenine cell based assay, pIC50: +++ (+++ = pIC50 ≥5.50)
IDO [2]
  SKOV3 Kynurenine cell based assay, pIC50: ++ (++ = pIC50 4.50-5.49)
